Earlier results in publication PMC11247627, “Evaluation of Antibacterial Functionalized Dihydropyrimidine Photoaffinity Probes Toward Mechanism of Action Studies” (ACS Medicinal Chemistry Letters, 2024).

Assays:
Details in all cases: cited from earlier work
mammalian toxicity = test system: mammalian toxicity; parameters: method as in PMID 18931753
MRSA = test system: MRSA; parameters: method as in PMID 18931753, PMID 16883415
[1] = test system: dihydrofolate reductase (DHFR); parameters: method as in PMID 18931753

CCOC(=O)C1=C(CC)NC(N)=NC1c1cc(Cl)cc(Cl)c1O (stereo not drawn) [compound 2, Emmacin]
mammalian toxicity (in words) (mammalian toxicity): lack mammalian toxicity
MRSA growth inhibition (in words) (MRSA): found to inhibit MRSA growth
DHFR inhibition (in words) [1]: previously reported to inhibit DHFR
